Common to all, as to assay type: biochemical
One assay deals with MMP-3 (stromelysin) (Homo sapiens, UniProt P08254). In words: thiopeptolide substrate hydrolysis assay, MMP-3. As to conditions: inhibition of hydrolytic activity of the enzyme, read-out: IC50 MMP3.
Another assay concerns the target T1, MMP-2 (Gelatinase A) (Homo sapiens, UniProt P08253).
T1 sequence (P08253 110-660): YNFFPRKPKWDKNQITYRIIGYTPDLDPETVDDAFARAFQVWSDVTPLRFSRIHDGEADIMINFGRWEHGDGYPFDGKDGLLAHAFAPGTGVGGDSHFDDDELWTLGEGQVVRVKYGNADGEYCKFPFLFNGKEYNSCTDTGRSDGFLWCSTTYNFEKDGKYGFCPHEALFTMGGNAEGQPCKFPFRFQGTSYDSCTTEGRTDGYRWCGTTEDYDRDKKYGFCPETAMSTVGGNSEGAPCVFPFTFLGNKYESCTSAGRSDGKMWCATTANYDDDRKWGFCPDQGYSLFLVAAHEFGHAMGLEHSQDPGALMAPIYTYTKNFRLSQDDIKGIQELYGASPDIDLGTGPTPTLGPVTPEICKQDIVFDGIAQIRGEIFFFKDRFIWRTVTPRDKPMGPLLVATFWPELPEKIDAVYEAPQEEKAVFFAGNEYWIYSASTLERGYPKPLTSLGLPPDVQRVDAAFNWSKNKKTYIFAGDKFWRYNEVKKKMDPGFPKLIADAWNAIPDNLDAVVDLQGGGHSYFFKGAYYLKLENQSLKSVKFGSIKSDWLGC
Kind of assay: thiopeptolide substrate hydrolysis assay, MMP-2. As to conditions: inhibition of hydrolytic activity of the enzyme, read-out: IC50 MMP2.

Assay [1] addresses T2, MMP-1 (interstitial collagenase) (Homo sapiens, UniProt P03956).
T2 sequence (P03956 100-469): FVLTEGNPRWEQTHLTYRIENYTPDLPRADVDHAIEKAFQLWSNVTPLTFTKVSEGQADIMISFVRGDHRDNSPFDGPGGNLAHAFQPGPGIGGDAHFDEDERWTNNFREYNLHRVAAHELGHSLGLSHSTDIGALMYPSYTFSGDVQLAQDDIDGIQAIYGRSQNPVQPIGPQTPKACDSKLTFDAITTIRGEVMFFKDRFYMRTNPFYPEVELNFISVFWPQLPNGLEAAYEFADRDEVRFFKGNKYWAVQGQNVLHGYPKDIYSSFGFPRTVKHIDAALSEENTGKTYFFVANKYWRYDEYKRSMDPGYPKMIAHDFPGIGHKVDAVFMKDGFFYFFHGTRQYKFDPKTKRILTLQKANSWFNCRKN
Kind of assay: thiopeptolide substrate hydrolysis assay, MMP-1. The conditions noted are these: inhibition of hydrolytic activity of the enzyme, read-out: IC50 MMP1.
Experimental: (§1) The assays measure the amount by which a test compound reduces the hydrolysis of a thiopeptolide substrate caused by a matrix metalloproteinase enzyme.
(§2) Thiopeptolide substrates show virtually no decomposition or hydrolysis in the absence of a matrix metalloproteinase enzyme. A typical thiopeptolide substrate commonly utilized for assays is Ac-Pro-Leu-Gly-thioester-Leu-Leu-Gly-OEt. […] Assays are carried out with and without matrix metalloproteinase inhibitor compounds, and the amount of hydrolysis is compared for a determination of inhibitory activity of the test compounds.

pIC50: −log10 of the molar value.

Chain of MMP-3 (stromelysin) (P08254 100-477, species assumed): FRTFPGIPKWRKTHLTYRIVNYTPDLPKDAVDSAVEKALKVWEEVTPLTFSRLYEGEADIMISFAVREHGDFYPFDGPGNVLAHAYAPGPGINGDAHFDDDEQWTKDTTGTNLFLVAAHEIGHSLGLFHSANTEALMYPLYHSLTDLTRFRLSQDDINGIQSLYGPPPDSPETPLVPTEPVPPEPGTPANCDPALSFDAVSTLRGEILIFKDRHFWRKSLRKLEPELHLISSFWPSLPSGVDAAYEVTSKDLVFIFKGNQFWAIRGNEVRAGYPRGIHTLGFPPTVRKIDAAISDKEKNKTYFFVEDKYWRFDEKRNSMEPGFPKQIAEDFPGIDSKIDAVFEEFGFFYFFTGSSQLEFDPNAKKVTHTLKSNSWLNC
Experimental for MMP-2 (Gelatinase A): as §1, §2
Experimental for MMP-3 (stromelysin): as §1, §2

As usually defined, the pIC50 is the negative decadic logarithm of the IC50, by convention in mol/L. On to `O=C(O)CCC(O)c1ccc(-c2ccc(Cl)cc2)cc1` (racemic) [(±)-4-(4′-Chloro-biphenyl-4-yl)-4-hydroxy-butyric acid], for which the results for the pIC50 on MMP-3 (stromelysin) and at MMP-2 (Gelatinase A) were 6.55 and 6.82, respectively.
Turning to `O=C(O)CCC(=NO)c1ccc(-c2ccc(Br)cc2)cc1` [4-(4′-Bromo-biphenyl-4-yl)-4-hydroxyimino-butyric acid], the pIC50 on MMP-3 (stromelysin) is 6.96; on MMP-2 (Gelatinase A) it was 7.24.
For `CN(C)N=C(CCC(=O)O)c1ccc(-c2ccc(Cl)cc2)cc1` [4-(4′-Chloro-biphenyl-4-yl)-4-(dimethylhydrazono)-butyric acid], in that order: 6.03 and 6.14.
For `O=C(O)CCC(=NO)c1ccc(-c2ccc(Cl)cc2)cc1` [4-(4′-Chloro-biphenyl-4-yl)-4-hydroxyimino-butyric acid], in that order: 6.92 and 6.41.
On to `O=C(O)CCC(=O)c1ccc(N2CCN(c3ccccc3)CC2)cc1` [4-Oxo-4-[4-(4-phenyl-piperazin-1-yl)-phenyl]-butyric acid], for which the pIC50 on MMP-3 (stromelysin) is 6.60; on MMP-2 (Gelatinase A), 5.80.
For `O=C(O)CCC(=O)c1ccc(N2CCC(c3ccccc3)CC2)cc1` [4-Oxo-4-[4-(4-phenyl-piperidin-1-yl)-phenyl]-butyric acid], in that order: 6.85 and 5.89.
For the compound `O=C(O)[C@H](CS)NS(=O)(=O)c1ccc2oc3ccccc3c2c1` [(L)-2-(Dibenzofuran-2-sulfonylamino)-3-mercapto-propionic acid], the pIC50 is 6.16 on MMP-3 (stromelysin) and 5.35 at MMP-2 (Gelatinase A).
Consider `CC(C)[C@H](NS(=O)(=O)c1ccc2oc3ccccc3c2c1)C(=O)O` [(L)-2-(Dibenzofuran-2-sulfonylamino)-3-methyl-butyric acid], for which the pIC50 at MMP-3 (stromelysin) was 6.64; on MMP-2 (Gelatinase A) it was 7.08.
For `O=C(O)[C@H](Cc1ccccc1)NS(=O)(=O)c1ccc2oc3ccccc3c2c1` [(L)-2-(Dibenzofuran-2-sulfonylamino)-3-phenyl-propionic acid], in that order: 6.14 and 6.05.
For `O=C(O)[C@H](CSC(c1ccccc1)(c1ccccc1)c1ccccc1)NS(=O)(=O)c1ccc2oc3ccccc3c2c1` [(L)-2-(Dibenzofuran-2-sulfonylamino)-3-tritylsulfanyl-propionic acid], in that order: 4.84 and 5.03.
Take `CC(C)C[C@H](NS(=O)(=O)c1ccc2oc3ccccc3c2c1)C(=O)O` [(L)-2-(Dibenzofuran-2-sulfonylamino)-4-methyl-pentanoic acid]: the pIC50 on MMP-3 (stromelysin) is 5.93; on MMP-2 (Gelatinase A) it was 6.49.
As to `O=C(O)[C@H](Cc1ccccc1)NS(=O)(=O)c1ccc(-c2ccc(Br)cc2)cc1` [(S)-2-(4′-Bromo-biphenyl-4-sulfonylamino)-3-phenyl-propionic acid], the pIC50 on MMP-2 (Gelatinase A) was 7.59.
In the case of `O=C(O)[C@H](CCc1ccccc1)NS(=O)(=O)c1ccc2oc3ccccc3c2c1` [(S)-2-(Dibenzofuran-2-sulfonylamino)-4-phenyl-butyric acid], the pIC50 on MMP-3 (stromelysin) was 6.34; at MMP-2 (Gelatinase A) it was 6.58.
For `CC(=O)N[C@@H](CC(=O)c1ccc2oc3ccccc3c2c1)C(=O)O` [(S)-2-Acetylamino-4-dibenzofuran-2-yl-4-oxo-butyric acid], in that order: 5.81 and 6.80.
Taken in the same sequence, the figures for `N[C@@H](CC(=O)c1ccc2oc3ccccc3c2c1)C(=O)O` [(S)-2-Amino-4-dibenzofuran-2-yl-4-oxo-butyric acid] were 4.48 and 5.42.
For `O=C(O)[C@H](Cc1ccccc1)NS(=O)(=O)c1ccc(N2CCC(Cc3ccccc3)CC2)cc1` [(S)-2-[4-(4-Benzyl-piperidin-1-yl)-benzenesulfonyl-amino]-3-phenyl-propionic acid], in that order: 7.68 and 7.06.
Consider `COc1ccc(N2CCN(c3ccc(S(=O)(=O)N[C@@H](Cc4ccccc4)C(=O)O)cc3)CC2)cc1` [(S)-2-{4-[-4-(4-Methoxy-phenyl)-piperazin-1-yl]-benzenesulfonylamino}-3-phenyl-propionic acid], for which the pIC50 on MMP-3 (stromelysin) is 7.85; at MMP-2 (Gelatinase A) it was 7.48.
Turning to `CC(C)[C@H](NS(=O)(=O)c1ccc(-c2ccc([N+](=O)[O-])cc2)cc1)C(=O)O` [(S)-3-Methyl-2-(4′-nitro-biphenyl-4-sulfonylamino)-butyric acid], the pIC50 at MMP-3 (stromelysin) is 7.00.
Regarding `O=C(O)[C@H](Cc1ccccc1)NS(=O)(=O)c1ccc(N2CCC(c3ccccc3)CC2)cc1` [(S)-3-Phenyl-2-[4-(4-phenyl-piperidin-1-yl)-benzene-sulfonylamino]-propionic acid], the pIC50 on MMP-3 (stromelysin) is 7.85; at MMP-2 (Gelatinase A), 6.66.
Taken in the same sequence, the figures for `O=C(C[C@H](NC(=O)C(F)(F)F)C(=O)O)c1ccc2oc3ccccc3c2c1` [(S)-4-Dibenzofuran-2-yl-4-oxo-2-(2,2,2-trifluoroacetylamino)-butyric acid] were 5.88 and 6.14.
For `O=C(CCc1ccccc1)N[C@@H](CC(=O)c1ccc2oc3ccccc3c2c1)C(=O)O` [(S)-4-Dibenzofuran-2-yl-4-oxo-2-(3-phenyl-propionylamino)-butyric acid], in that order: 6.55 and 7.02.
For `O=C(Cc1ccccc1)N[C@@H](CC(=O)c1ccc2oc3ccccc3c2c1)C(=O)O` [(S)-4-Dibenzofuran-2-yl-4-oxo-2-phenylacetylamino-butyric acid], in that order: 6.48 and 7.08.
Turning to `O=C(CNS(=O)(=O)c1ccc(N2CCC(c3ccccc3)CC2)cc1)NO` [N-Hydroxy-2-[4-(4-phenyl-piperidin-1-yl)-benzene-sulfonylamino]-acetamide], the negative logarithm of the IC50 (pIC50) is 7.72 on MMP-3 (stromelysin) and 6.09 on MMP-2 (Gelatinase A).
For `O=C(CCC(=O)c1ccc(N2CCC(c3ccccc3)CC2)cc1)NO` [N-Hydroxy-4-oxo-4-[4-(4-phenyl-piperidin-1-yl)-phenyl]-butyramide], in that order: 7.70 and 7.40.
As to `CNC(=O)[C@@H](NC(=O)[C@@H](CC(=O)NO)CC(C)C)C(C)(C)C` [RO-31-9790, reference compound], the pIC50 is 6.33 on MMP-3 (stromelysin), 8.22 on MMP-2 (Gelatinase A) and 8.26 in assay [1].
In the case of `CC(C)CC(CC(=O)NO)C(=O)N[C@@H](CC(C)C)C(=O)N[C@@H](Cc1ccccc1)C(N)=O` (stereo partly shown) [U24522, reference compound], at MMP-3 (stromelysin), the pIC50 was 7.70.
As for `O=C(O)CNS(=O)(=O)c1ccc(N2CCC(c3ccccc3)CC2)cc1` [[4-(4-Phenyl-piperidin-1-yl)-benzenesulfonylamino]-acetic acid], the values for the pIC50 at MMP-3 (stromelysin) and at MMP-2 (Gelatinase A) were 7.70 and 6.68, respectively.

The values are drawn from patent US20040176393A1, “Statin-MMP inhibitor combinations” (priority 1998, published 2004).
